Test results as given in patent publication EP0443568B1, “Fused thiophene derivatives, their production and use” (Takeda Chemical Industries, Ltd., priority 1990, dated 1991).

Tests used:
A-II-receptor = target: T1, A-II-receptor (Bos taurus, UniProt P25104); test: Inhibition of binding of angiotensin-II to angiotensin receptor (radio receptor assay, 125I-A-II); details: membrane fraction of bovine adrenal cortex, room temperature, one hour, read-out: Radio Receptor Assay IC₅₀
T1 construct: An A-II-receptor was prepared from the membrane fraction of bovine adrenal cortex; from tissue; host or cells: bovine adrenal cortex membrane fraction
T1 sequence (P25104 1-359): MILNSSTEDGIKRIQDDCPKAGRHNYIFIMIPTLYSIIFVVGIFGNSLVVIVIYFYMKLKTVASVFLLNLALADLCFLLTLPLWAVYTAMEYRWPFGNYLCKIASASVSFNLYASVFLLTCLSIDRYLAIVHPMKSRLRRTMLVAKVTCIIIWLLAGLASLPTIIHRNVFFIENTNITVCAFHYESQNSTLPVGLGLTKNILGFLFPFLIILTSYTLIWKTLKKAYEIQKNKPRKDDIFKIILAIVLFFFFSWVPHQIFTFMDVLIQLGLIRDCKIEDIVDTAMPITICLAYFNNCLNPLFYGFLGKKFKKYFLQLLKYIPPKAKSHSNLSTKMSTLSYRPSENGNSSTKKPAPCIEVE
Procedure: An experiment of inhibition on the binding of angiotensin-II (A-II) to A-II-receptor was conducted by modifying the method of Douglas et al. [Endocrinology, 102, 685-696 (1978)]. An A-II-receptor was prepared from the membrane fraction of bovine adrenal cortex.
The compound of the present invention (10⁻⁹M to 3 × 10⁻⁵M ) and ¹²⁵I-A-II (1.85 kBq/50 µ l) were added to the receptor membrane fraction, and the mixture was incubated at room temperature for one hour. The receptor-bound and free ¹²⁵I-A-II were separated through a filter (Whatman GF/B filter), and the radioactivity of ¹²⁵I-A-II bound to the receptor was measured.

[1] = system: A-II-induced pressor action; test: Inhibitory effect on pressor action of A-II in rats after oral administration; type: in vivo, Jcl : SD rats; details: Rattus norvegicus, p.o., A-II 100 ng/kg intravenous, male SD rats, read-out: Pressor Response (30 mg/Kg, p.o.)
Procedure: Jcl : SD rats (9 week old, male) were used. On the day previous to the experiment, these animals were applied with cannulation into the femoral artery and vein under anesthesia with pentobarbital Na. The animals were fasted but allowed to access freely to drinking water until the experiment was started. Just on the day of conducting the experiment, the artery cannula was connected with a blood-pressure transducer, and the average blood pressure was recorded by means of polygraph. Before administration of the drug, the pressor action due to intravenous administration of A-II (100 ng/kg) as the control was measured. The drugs were orally administered, and then, at each point of the measurement, A-II was administered intravenously, and the pressor action was similarly measured. By comparing the pressor action before and after administration of the drug, the percent inhibition by the drug on A-II-induced pressor action was evaluated.

| SMILES | IC50 (A-II-receptor) [µM] | inhibition in vivo at 30 mg/kg [1] [%] |
| --- | --- | --- |
| CCOC(=O)c1cn(Cc2ccc(-c3ccccc3-c3nn[nH]n3)cc2)c2sc(CC)cc2c1=O [compound 2] | 0.05 |  |
| CCOC(=O)c1cn(Cc2ccc(-c3ccccc3-c3nn[nH]n3)cc2)c2sc(Br)cc2c1=O [compound 3] | 0.07 |  |
| CCc1cc2c(=O)c(C(=O)NCCO)cn(Cc3ccc(-c4ccccc4-c4nn[nH]n4)cc3)c2s1 [compound 15] | 0.05 |  |
| CCOC(=O)c1cn(Cc2ccc(-c3ccccc3-c3nn[nH]n3)cc2)c2sccc2c1=O [compound 4] | 0.2 |  |
| CCCc1cc2c(=O)c(C(=O)OCC)cn(Cc3ccc(-c4ccccc4-c4nn[nH]n4)cc3)c2s1 [compound 6] | 0.09 |  |
| CCc1cc2c(=O)c(C(=O)O)cn(Cc3ccc(-c4ccccc4-c4nn[nH]n4)cc3)c2s1 [compound 10] | 0.04 | 50 to 70 |
| CCc1cc2c(=O)c(C(=O)NCc3ccccn3)cn(Cc3ccc(-c4ccccc4-c4nn[nH]n4)cc3)c2s1 [compound 30] | 0.02 | ≥ 70 |
| CCOC(=O)c1cn(Cc2ccc(-c3ccccc3-c3nn[nH]n3)cc2)c2sc(C)cc2c1=O [compound 5] | 0.05 |  |
| CCOC(=O)c1cn(Cc2ccc(-c3ccccc3C(=O)O)cc2)c2sc(CC)cc2c1=O [compound 11] | 0.21 |  |
| CCc1cc2c(=O)c(C(=O)OCC(C)C)cn(Cc3ccc(-c4ccccc4-c4nn[nH]n4)cc3)c2s1 [compound 7] | 0.17 |  |
| CCc1cc2c(=O)c(C(=O)OCCOC)cn(Cc3ccc(-c4ccccc4-c4nn[nH]n4)cc3)c2s1 [compound 8] | 0.01 |  |
| CCc1cc2c(=O)c(C(=O)NCC(C)C)cn(Cc3ccc(-c4ccccc4-c4nn[nH]n4)cc3)c2s1 [compound 14] | 0.13 |  |
| CCc1cc2c(=O)c(C(=O)NCc3ccccc3)cn(Cc3ccc(-c4ccccc4-c4nn[nH]n4)cc3)c2s1 [compound 12] | 0.06 | ≥ 70 |

Now from value to molecule, other results behind:

| IC50 (A-II-receptor) [µM] | SMILES | inhibition in vivo at 30 mg/kg [1] [%] |
| --- | --- | --- |
| 0.78 | CCc1cc2c(=O)c(C(=O)NC(C)c3ccccc3)cn(Cc3ccc(-c4ccccc4-c4nn[nH]n4)cc3)c2s1 (stereo not shown) [compound 25] | ≥ 70 |
| 0.25 | CCc1cc2c(=O)c(C(=O)NCc3ccccc3OC)cn(Cc3ccc(-c4ccccc4-c4nn[nH]n4)cc3)c2s1 [compound 21] | ≥ 70 |
| 0.02 | CCc1cc2c(=O)c(C(N)=O)cn(Cc3ccc(-c4ccccc4-c4nn[nH]n4)cc3)c2s1 [compound 13] |  |
| 0.19 | CCc1cc2c(=O)c(C(=O)NCc3cccc(F)c3)cn(Cc3ccc(-c4ccccc4-c4nn[nH]n4)cc3)c2s1 [compound 24] | ≥ 70 |
| 0.67 | CCOC(=O)c1cn(Cc2ccc(-c3ccccc3-c3nn[nH]n3)cc2)c2sc(C#N)cc2c1=O [compound 20] |  |
| 0.21 | CCc1cc2c(=O)c(C(=O)NCc3ccccc3F)cn(Cc3ccc(-c4ccccc4-c4nn[nH]n4)cc3)c2s1 [compound 26] | ≥ 70 |
| 0.22 | CCc1cc2c(=O)c(C(=O)NCc3ccc(C)cc3)cn(Cc3ccc(-c4ccccc4-c4nn[nH]n4)cc3)c2s1 [compound 28] | 50 to 70 |
| 0.12 | CCc1cc2c(=O)c(C(=O)Nc3ccccc3)cn(Cc3ccc(-c4ccccc4-c4nn[nH]n4)cc3)c2s1 [compound 16] | ≥ 70 |
| 0.17 | CCc1cc2c(=O)c(C(=O)NCc3ccc(F)cc3)cn(Cc3ccc(-c4ccccc4-c4nn[nH]n4)cc3)c2s1 [compound 23] | ≥ 70 |
| 0.12 | CCc1cc2c(=O)c(C(=O)NCc3ccccc3C)cn(Cc3ccc(-c4ccccc4-c4nn[nH]n4)cc3)c2s1 [compound 29] | ≥ 70 |
